Where only a bound is given, the exact number is not on record here.

T1 sequence (Q92769 whole entry): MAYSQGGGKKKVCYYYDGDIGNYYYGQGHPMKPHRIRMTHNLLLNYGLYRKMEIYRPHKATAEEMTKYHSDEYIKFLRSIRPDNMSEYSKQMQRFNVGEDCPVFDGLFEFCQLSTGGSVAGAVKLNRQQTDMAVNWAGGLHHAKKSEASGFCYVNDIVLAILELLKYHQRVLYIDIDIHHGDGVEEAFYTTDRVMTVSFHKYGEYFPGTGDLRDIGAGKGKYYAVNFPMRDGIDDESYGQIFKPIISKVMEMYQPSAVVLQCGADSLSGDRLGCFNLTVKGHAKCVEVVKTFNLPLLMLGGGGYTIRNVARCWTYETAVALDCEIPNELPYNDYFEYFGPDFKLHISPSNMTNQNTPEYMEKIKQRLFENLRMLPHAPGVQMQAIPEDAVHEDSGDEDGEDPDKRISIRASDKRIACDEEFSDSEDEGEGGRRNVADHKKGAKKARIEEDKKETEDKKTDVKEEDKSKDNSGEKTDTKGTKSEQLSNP
HDAC1, sequence (Q13547 whole entry): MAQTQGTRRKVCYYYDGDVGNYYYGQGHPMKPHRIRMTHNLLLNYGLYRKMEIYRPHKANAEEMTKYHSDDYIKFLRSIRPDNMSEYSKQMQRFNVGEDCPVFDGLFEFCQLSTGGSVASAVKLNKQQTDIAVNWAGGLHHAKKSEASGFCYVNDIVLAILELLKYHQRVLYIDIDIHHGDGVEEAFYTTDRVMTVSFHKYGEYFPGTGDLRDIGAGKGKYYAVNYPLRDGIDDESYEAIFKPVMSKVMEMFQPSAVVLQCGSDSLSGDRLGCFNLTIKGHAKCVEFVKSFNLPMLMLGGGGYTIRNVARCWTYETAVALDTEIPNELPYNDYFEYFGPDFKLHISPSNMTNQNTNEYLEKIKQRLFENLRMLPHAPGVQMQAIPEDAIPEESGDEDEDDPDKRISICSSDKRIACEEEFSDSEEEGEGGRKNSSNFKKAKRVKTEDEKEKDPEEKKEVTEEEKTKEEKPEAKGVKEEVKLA

One test concerns the target T1, HDAC2 (Homo sapiens, UniProt Q92769).
T1 construct: purchased Proteros
Description: Reporter displacement assay (HDAC2). In kind it is binding. The note with it: 20 nM HDAC2, 180 nM reporter probe, read after 4 hours; Kd by Cheng Prusoff equation. The protocol: HDAC2 containing a C-terminal HIS-Tag (Proteros) and fluorescently-labeled anti-HIS-antibody are diluted in one vial in assay buffer 50 mM Tris, pH 8.0, 1 mM DTT, 150 mM NaCl, and 0.01% Tween20. Components are pre-incubated for 30 min, then a small volume of reporter probe (Proteros) is added from a highly concentrated stock and incubation is continued for another 30 min. […] Ten µl/well of pre-formed complex are transferred into 384 well assay plates (Corning). Compounds to be profiled are serially diluted from 1x10^1 - 5.7x10^-5 mM in DMSO and 60 nl are added to assay plates by pintool transfer (CybiWell, Cybio). Fluorescence intensity signal is read after 4 hours in a Pherastar FS (BMG Labtech) at 337/665 nm. For Kd determination, percent probe displacement values are calculated for each compound concentration and plotted against the compound concentration. […] Since the reporter probe is used at a concentration reflecting its own Kd value, compound Kd values can be calculated according to the Cheng Prusoff equation. […] Table 4. HDAC1 and HDAC2 Kd Values for Exemplary Compounds Useful in the Invention
`Nc1cc(F)c(-c2ccc(F)cc2)cc1NC(=O)N1Cc2ccncc2C1` [Compound 100]: the Kd (as a rule, the free concentration of one partner at which half of the binding sites on the other are occupied at equilibrium, for simple one-to-one binding) lay in the range of 100 to 500 nM.

Turning to `Nc1nn(-c2ccncc2)cc1NC(=O)N1Cc2ccncc2C1` [Compound 103], the equilibrium dissociation constant (Kd) is over 5000 nM.

Consider `Nc1ncc(-c2ccc(F)cc2)cc1NC(=O)N1CC2CCCC2C1` (stereo not drawn) [Compound 104], for which the Kd was over 5000 nM.

Turning to `Nc1cnc(-c2ccc(F)cc2)cc1NC(=O)N1CCCC1` [Compound 105], the Kd lay within 500 to 5000 nM.

The compound `Nc1cnc(-c2ccc(F)cc2)cc1NC(=O)C1CCOCC1` [Compound 106] returned a Kd of over 5000 nM.

`Nc1ccc(-c2ccc(F)cc2)nc1NC(=O)N1CCCC1` [Compound 107] came in with a dissociation constant Kd of 500 to 5000 nM.

In turn, `Nc1cnc(-c2ccncc2)cc1NC(=O)N1CCCC1` [Compound 108] had an equilibrium dissociation constant (Kd) of 500 to 5000 nM.

`Nc1ccc(-c2ccc(F)cc2)nc1NC(=O)C1CCOCC1` [Compound 109]: the Kd lay within 500 to 5000 nM.

Consider `Nc1cnc(-c2ccc(F)cc2)nc1NC(=O)N1CCCC1` [Compound 110], for which the dissociation constant (Kd) was over 5000 nM.

`Nc1ccc(-c2ccncc2)nc1NC(=O)N1CCCC1` [Compound 111] registered a dissociation constant Kd of over 5000 nM.

`Nc1ccc(-c2ccc(F)cc2)c(F)c1NC(=O)N1CCCC1` [Compound 112] came in with a Kd of 100 to 500 nM.

The compound `Nc1ccc(-c2ccc(F)cc2)c(F)c1NC(=O)N1Cc2nccnc2C1` [Compound 113] registered a Kd of 100 to 500 nM.

Compound `Nc1cc(F)c(-c2ccc(F)cc2)cc1NC(=O)N1CCCC1` [Compound 114] returned a Kd of over 5000 nM.

`Nc1cc(F)c(-c2ccc(F)cc2)cc1NC(=O)C1CCOCC1` [Compound 115] displayed a Kd of 500 to 5000 nM.

For the compound `Nc1cc(F)c(-c2ccc(F)c(F)c2)cc1NC(=O)N1CCCC1` [Compound 116], the Kd was 500 to 5000 nM.

`Nc1ccc(-c2ccc(F)c(F)c2)c(F)c1NC(=O)N1CCCC1` [Compound 117]: the Kd is over 5000 nM.

`Nc1ccc(-c2ccc(F)cc2)c(F)c1NC(=O)C1CCOCC1` [Compound 118] displayed a dissociation constant (Kd) of 500 to 5000 nM.

`Nc1cc(F)c(-c2ccc(F)cc2)cc1NC(=O)N1Cc2nccnc2C1` [Compound 119] returned a Kd of 100 to 500 nM.

In turn, `Nc1ccc(-c2ccc(F)cc2)nc1NC(=O)N1Cc2nccnc2C1` [Compound 120] came in with a Kd of 500 to 5000 nM.

In turn, `Nc1cnc(-c2ccc(F)cc2)nc1NC(=O)N1Cc2nccnc2C1` [Compound 121] displayed an equilibrium dissociation constant (Kd) of over 5000 nM.

Take `Nc1cn(-c2ccccc2)nc1NC(=O)N1Cc2ccncc2C1` [Compound 122]: the Kd was in the range of 100 to 500 nM.

Another test has as its target HDAC1 (Homo sapiens, UniProt Q13547). Description: Reporter displacement assay (HDAC1). In kind it is binding.
Conditions: not given
As to `Nc1cc(F)c(-c2ccc(F)cc2)cc1NC(=O)N1Cc2ccncc2C1` [Compound 100], the Kd lay within 100 to 500 nM and the residence time amounted to 196 min.

As to `Nc1nn(-c2ccncc2)cc1NC(=O)N1Cc2ccncc2C1` [Compound 103], the Kd was over 5000 nM.

In turn, `Nc1ncc(-c2ccc(F)cc2)cc1NC(=O)N1CC2CCCC2C1` (stereo not drawn) [Compound 104] returned a Kd of over 5000 nM.

`Nc1cnc(-c2ccc(F)cc2)cc1NC(=O)N1CCCC1` [Compound 105] registered a Kd of 500 to 5000 nM and a residence time of 851 min.

On to `Nc1cnc(-c2ccc(F)cc2)cc1NC(=O)C1CCOCC1` [Compound 106], for which the Kd was over 5000 nM and the residence time amounted to 121 min.

In turn, `Nc1ccc(-c2ccc(F)cc2)nc1NC(=O)N1CCCC1` [Compound 107] registered an equilibrium dissociation constant (Kd) of 500 to 5000 nM and a residence time of 653 min.

In turn, `Nc1cnc(-c2ccncc2)cc1NC(=O)N1CCCC1` [Compound 108] yielded a Kd of 500 to 5000 nM and a residence time of 401 min.

Regarding `Nc1ccc(-c2ccc(F)cc2)nc1NC(=O)C1CCOCC1` [Compound 109], the dissociation constant (Kd) is over 5000 nM and the residence time was 14 min.

As to `Nc1cnc(-c2ccc(F)cc2)nc1NC(=O)N1CCCC1` [Compound 110], the Kd lay in the range of 500 to 5000 nM and the residence time worked out at 688 min.

Compound `Nc1ccc(-c2ccncc2)nc1NC(=O)N1CCCC1` [Compound 111] displayed a Kd of over 5000 nM and a residence time of 151 min.

Compound `Nc1ccc(-c2ccc(F)cc2)c(F)c1NC(=O)N1CCCC1` [Compound 112] yielded an equilibrium dissociation constant (Kd) of 100 to 500 nM and a residence time of 329 min.

`Nc1ccc(-c2ccc(F)cc2)c(F)c1NC(=O)N1Cc2nccnc2C1` [Compound 113] showed a dissociation constant Kd of under 100 nM and a residence time of 350 min.

`Nc1cc(F)c(-c2ccc(F)cc2)cc1NC(=O)N1CCCC1` [Compound 114]: the dissociation constant (Kd) was over 5000 nM and the residence time is 49 min.

Take `Nc1cc(F)c(-c2ccc(F)cc2)cc1NC(=O)C1CCOCC1` [Compound 115]: the Kd is over 5000 nM.

The compound `Nc1cc(F)c(-c2ccc(F)c(F)c2)cc1NC(=O)N1CCCC1` [Compound 116] registered a Kd of 500 to 5000 nM and a residence time of 87 min.

`Nc1ccc(-c2ccc(F)c(F)c2)c(F)c1NC(=O)N1CCCC1` [Compound 117]: the Kd was over 5000 nM.

For the compound `Nc1ccc(-c2ccc(F)cc2)c(F)c1NC(=O)C1CCOCC1` [Compound 118], the Kd was in the range of 500 to 5000 nM and the residence time came out at 69 min.

In the case of `Nc1cc(F)c(-c2ccc(F)cc2)cc1NC(=O)N1Cc2nccnc2C1` [Compound 119], the dissociation constant (Kd) lay in the range of 100 to 500 nM and the residence time was determined as 126 min.

`Nc1ccc(-c2ccc(F)cc2)nc1NC(=O)N1Cc2nccnc2C1` [Compound 120] returned an equilibrium dissociation constant (Kd) of 100 to 500 nM and a residence time of 830 min.

Regarding `Nc1cnc(-c2ccc(F)cc2)nc1NC(=O)N1Cc2nccnc2C1` [Compound 121], the Kd lay within 500 to 5000 nM and the residence time stood at 682 min.

`Nc1cn(-c2ccccc2)nc1NC(=O)N1Cc2ccncc2C1` [Compound 122] came in with a Kd of 100 to 500 nM and a residence time of 572 min.

The target of another test is T1, HDAC2. Description: Reporter displacement assay (HDAC2). In kind it is binding.
Conditions: not given
As to `Nc1cc(F)c(-c2ccc(F)cc2)cc1NC(=O)N1Cc2ccncc2C1` [Compound 100], the residence time was 703 min.

In turn, `Nc1cnc(-c2ccc(F)cc2)cc1NC(=O)N1CCCC1` [Compound 105] came in with a residence time of 634 min.

`Nc1ccc(-c2ccc(F)cc2)nc1NC(=O)N1CCCC1` [Compound 107] had a residence time of 1280 min.

As for `Nc1cnc(-c2ccncc2)cc1NC(=O)N1CCCC1` [Compound 108], the residence time was found to be 1430 min.

The compound `Nc1ccc(-c2ccc(F)cc2)nc1NC(=O)C1CCOCC1` [Compound 109] yielded a residence time of 264 min.

`Nc1ccc(-c2ccncc2)nc1NC(=O)N1CCCC1` [Compound 111] displayed a residence time of 540 min.

The compound `Nc1ccc(-c2ccc(F)cc2)c(F)c1NC(=O)N1CCCC1` [Compound 112] registered a residence time of 790 min.

`Nc1ccc(-c2ccc(F)cc2)c(F)c1NC(=O)N1Cc2nccnc2C1` [Compound 113]: the residence time turned out to be 609 min.

Turning to `Nc1cc(F)c(-c2ccc(F)cc2)cc1NC(=O)C1CCOCC1` [Compound 115], the residence time was 185 min.

Consider `Nc1cc(F)c(-c2ccc(F)c(F)c2)cc1NC(=O)N1CCCC1` [Compound 116], for which the residence time worked out at 114 min.

The compound `Nc1ccc(-c2ccc(F)c(F)c2)c(F)c1NC(=O)N1CCCC1` [Compound 117] returned a residence time of 42 min.

The compound `Nc1ccc(-c2ccc(F)cc2)c(F)c1NC(=O)C1CCOCC1` [Compound 118] registered a residence time of 176 min.

As for `Nc1cc(F)c(-c2ccc(F)cc2)cc1NC(=O)N1Cc2nccnc2C1` [Compound 119], the residence time was found to be 1200 min.

`Nc1ccc(-c2ccc(F)cc2)nc1NC(=O)N1Cc2nccnc2C1` [Compound 120] came in with a residence time of 1170 min.

As to `Nc1cnc(-c2ccc(F)cc2)nc1NC(=O)N1Cc2nccnc2C1` [Compound 121], the residence time came to 1200 min.

In the case of `Nc1cn(-c2ccccc2)nc1NC(=O)N1Cc2ccncc2C1` [Compound 122], the residence time was determined as 2380 min.

Values taken from patent publication EP3319959B1, “HETERO-HALO INHIBITORS OF HISTONE DEACETYLASE” (Alkermes, Inc., priority 2015, dated 2017).
